Test results published in ChEMBL document CHEMBL3885881, “DrugMatrix”.

Organism: Rattus norvegicus
Test: DrugMatrix - Regimen: Daily Repeat
Type: toxicity, organism-based, Sprague-Dawley
Set-up: regimen Daily Repeat, gender Male, age 6-8 weeks
Settings: in vivo, po, route oral GAVAGE, vehicle 100 % SALINE; for ABSOLUTE BASOPHIL / ABSOLUTE EOSINOPHIL / ABSOLUTE LYMPHOCYTE / ABSOLUTE MONOCYTE / ABSOLUTE SEGMENTED NEUTROPHIL / BASOPHIL / EOSINOPHIL / ERYTHROCYTE COUNT / HEMATOCRIT / HEMOGLOBIN / LEUKOCYTE COUNT / LYMPHOCYTE / MEAN CORPUSCULAR HEMOGLOBIN / MEAN CORPUSCULAR HEMOGLOBIN CONCENTRATION / MEAN CORPUSCULAR VOLUME / MONOCYTE / NEUTROPHIL / NUCLEATED RED BLOOD CELLS / PLATELET COUNT: tissue Blood; for ALANINE AMINOTRANSFERASE / ALBUMIN / ALKALINE PHOSPHATASE / ASPARTATE AMINOTRANSFERASE / BLOOD UREA NITROGEN / CARBON DIOXIDE / CHLORIDE / CHOLESTEROL / CREATINE PHOSPHOKINASE / CREATININE / GLUCOSE / LACTATE DEHYDROGENASE / LIPASE / PHOSPHORUS / POTASSIUM / SODIUM / TOTAL BILIRUBIN / TOTAL PROTEIN / URIC ACID: tissue Plasma
[1] = 3000 mg/kg, […], dose level Low, time 7 day
[2] = 6000 mg/kg, 72 h, dose level High, time 3 day
[3] = 6000 mg/kg, […], dose level High, time 7 day

CCO [ALCOHOL]
ABSOLUTE BASOPHIL [1]: 0 CELLS/uL
ABSOLUTE EOSINOPHIL [1]: 0 CELLS/uL
ABSOLUTE LYMPHOCYTE [1]: 9669 CELLS/uL
ABSOLUTE MONOCYTE [1]: 317.33 CELLS/uL
ABSOLUTE SEGMENTED NEUTROPHIL [1]: 1063.67 CELLS/uL
BASOPHIL [1]: 0%
EOSINOPHIL [1]: 0%
ERYTHROCYTE COUNT [1]: 5.39 x10E6/uL
HEMATOCRIT [1]: 34.88%
HEMOGLOBIN [1]: 13.85 G/DL
LEUKOCYTE COUNT [1]: 11.05 x10E3/uL
LYMPHOCYTE [1]: 87%
MEAN CORPUSCULAR HEMOGLOBIN [1]: 25.73 pg
MEAN CORPUSCULAR HEMOGLOBIN CONCENTRATION [1]: 39.75 G/DL
MEAN CORPUSCULAR VOLUME [1]: 64.77 fL
MONOCYTE [1]: 2.83%
NEUTROPHIL [1]: 10.17%
NUCLEATED RED BLOOD CELLS [1]: 0 /100WBC
PLATELET COUNT [1]: 1110 x10E3/uL
ALANINE AMINOTRANSFERASE [1]: 51.67 u/L
ALBUMIN [1]: 4.5 G/DL
ALKALINE PHOSPHATASE [1]: 281.33 u/L
ASPARTATE AMINOTRANSFERASE [1]: 82.67 u/L
BLOOD UREA NITROGEN [1]: 15 mg/dL
CARBON DIOXIDE [1]: 31 mmol/L
CHLORIDE [1]: 98.33 MEQ/L
CHOLESTEROL [1]: 69.83 mg/dL
CREATINE PHOSPHOKINASE [1]: 250 u/L
CREATININE [1]: 0.19 mg/dL
GLUCOSE [1]: 135.67 mg/dL
LACTATE DEHYDROGENASE [1]: 123.5 u/L
LIPASE [1]: 10.17 u/L
PHOSPHORUS [1]: 10.85 mg/dL
POTASSIUM [1]: 5.95 MEQ/L
SODIUM [1]: 143.15 MEQ/L
TOTAL BILIRUBIN [1]: 0.22 mg/dL
TOTAL PROTEIN [1]: 5.93 G/DL
URIC ACID [1]: 0.68 mg/dL
ABSOLUTE BASOPHIL [2]: 0 CELLS/uL
ABSOLUTE EOSINOPHIL [2]: 0 CELLS/uL
ABSOLUTE LYMPHOCYTE [2]: 11300.5 CELLS/uL
ABSOLUTE MONOCYTE [2]: 91.33 CELLS/uL
ABSOLUTE SEGMENTED NEUTROPHIL [2]: 1124.83 CELLS/uL
BASOPHIL [2]: 0%
EOSINOPHIL [2]: 0%
ERYTHROCYTE COUNT [2]: 5.6 x10E6/uL
HEMATOCRIT [2]: 35.9%
HEMOGLOBIN [2]: 13 G/DL
LEUKOCYTE COUNT [2]: 12.52 x10E3/uL
LYMPHOCYTE [2]: 90.17%
MEAN CORPUSCULAR HEMOGLOBIN [2]: 23.25 pg
MEAN CORPUSCULAR HEMOGLOBIN CONCENTRATION [2]: 36.23 G/DL
MEAN CORPUSCULAR VOLUME [2]: 64.17 fL
MONOCYTE [2]: 0.67%
NEUTROPHIL [2]: 9.17%
NUCLEATED RED BLOOD CELLS [2]: 0 /100WBC
PLATELET COUNT [2]: 1089.17 x10E3/uL
ALANINE AMINOTRANSFERASE [2]: 60.5 u/L
ALBUMIN [2]: 4.18 G/DL
ALKALINE PHOSPHATASE [2]: 281 u/L
ASPARTATE AMINOTRANSFERASE [2]: 86.33 u/L
BLOOD UREA NITROGEN [2]: 12.33 mg/dL
CARBON DIOXIDE [2]: 28.33 mmol/L
CHLORIDE [2]: 101.33 MEQ/L
CHOLESTEROL [2]: 80.33 mg/dL
CREATINE PHOSPHOKINASE [2]: 216.67 u/L
CREATININE [2]: 0.46 mg/dL
GLUCOSE [2]: 142.83 mg/dL
LACTATE DEHYDROGENASE [2]: 151.83 u/L
LIPASE [2]: 9.83 u/L
PHOSPHORUS [2]: 11.08 mg/dL
POTASSIUM [2]: 5.96 MEQ/L
SODIUM [2]: 146.62 MEQ/L
TOTAL BILIRUBIN [2]: 0.17 mg/dL
TOTAL PROTEIN [2]: 6.02 G/DL
URIC ACID [2]: 0.97 mg/dL
ABSOLUTE BASOPHIL [3]: 0 CELLS/uL
ABSOLUTE EOSINOPHIL [3]: 38 CELLS/uL
ABSOLUTE LYMPHOCYTE [3]: 9373.67 CELLS/uL
ABSOLUTE MONOCYTE [3]: 256.5 CELLS/uL
ABSOLUTE SEGMENTED NEUTROPHIL [3]: 1531.83 CELLS/uL
BASOPHIL [3]: 0%
EOSINOPHIL [3]: 0.33%
ERYTHROCYTE COUNT [3]: 5.4 x10E6/uL
HEMATOCRIT [3]: 33.48%
HEMOGLOBIN [3]: 13.42 G/DL
LEUKOCYTE COUNT [3]: 11.2 x10E3/uL
LYMPHOCYTE [3]: 84.5%
MEAN CORPUSCULAR HEMOGLOBIN [3]: 24.92 pg
MEAN CORPUSCULAR HEMOGLOBIN CONCENTRATION [3]: 40.07 G/DL
MEAN CORPUSCULAR VOLUME [3]: 62.18 fL
MONOCYTE [3]: 2.33%
NEUTROPHIL [3]: 12.83%
NUCLEATED RED BLOOD CELLS [3]: 0 /100WBC
PLATELET COUNT [3]: 1292.83 x10E3/uL
ALANINE AMINOTRANSFERASE [3]: 65.5 u/L
ALBUMIN [3]: 4.38 G/DL
ALKALINE PHOSPHATASE [3]: 202.33 u/L
ASPARTATE AMINOTRANSFERASE [3]: 86.17 u/L
BLOOD UREA NITROGEN [3]: 13 mg/dL
CARBON DIOXIDE [3]: 29.33 mmol/L
CHLORIDE [3]: 100.17 MEQ/L
CHOLESTEROL [3]: 67.17 mg/dL
CREATINE PHOSPHOKINASE [3]: 206 u/L
CREATININE [3]: 0.19 mg/dL
GLUCOSE [3]: 138.83 mg/dL
LACTATE DEHYDROGENASE [3]: 109 u/L
LIPASE [3]: 10 u/L
PHOSPHORUS [3]: 10.48 mg/dL
POTASSIUM [3]: 5.88 MEQ/L
SODIUM [3]: 144.13 MEQ/L
TOTAL BILIRUBIN [3]: 0.18 mg/dL
TOTAL PROTEIN [3]: 5.83 G/DL
URIC ACID [3]: 0.88 mg/dL
